Assay results reported in publication PMC9277925, “Discovery of a novel ALK/ROS1/FAK inhibitor, APG-2449, in preclinical non-small cell lung cancer and ovarian cancer models” (BMC Cancer, 2022).

Assays:
[1] = system: NSCLC PDX LU-01-0582R with acquired resistance to crizotinib; assay: Crizotinib-resistant NSCLC PDX LU-01-0582R efficacy; assay type: in vivo, BALB/c nude mice; settings: crizotinib 25 mg/kg
[2] = system: ovarian cancer OVCAR-3 CDX tumors; assay: OVCAR-3 ovarian CDX efficacy; assay type: in vivo, BALB/c nude mice
Method: (§1) A range of compounds were administered orally (PO) once daily (QD). […] Osimertinib was dissolved in 20% polyethylene glycol 400 (PEG-400; Sigma-Aldrich) and erlotinib in 2% TWEEN 80 (Sigma-Aldrich). Trametinib was dissolved in a solvent composed of 1% carboxymethylcellulose, 0.5% TWEEN 80, and 0.5% methylcellulose. Defactinib was dissolved in 10% PEG 400 plus 5% ethanol (Sigma-Aldrich) in 1× phosphate-buffered saline (Genom Biotech; Hangzhou, China) and administered PO twice daily. Paclitaxel dissolved in saline was administered intraperitoneally once weekly.
(§2) The following were computed as previously reported (23): mean ± SEM tumor volumes, percent changes in body weight, tumor growth inhibition in treatment/control (T/C; %), modified Response Evaluation Criteria in Solid Tumors (mRECIST) objective response rate (ORR %), and disease control rate (DCR, %).

PC-9 (parental) cells = assay: WST-8 cell viability assay; assay type: cell-based; settings: Homo sapiens, 72 h; treated for 3 days
Method: (§3) Cell viability was determined using the water-soluble tetrazolium salt (WST-8) assay (Cell counting Kit-8, Shanghai Life iLab). Cell viability was calculated as follows, where “RLU” signifies relative light units: Cellviability=meanRLUsample-meanRLUblank/RLUcellcontrol-RLUblank×100
(§4) Half-maximal inhibitory concentration (IC50) values were calculated using Prism (GraphPad, San Diego, CA).

[3] = system: PC-9/OR (osimertinib-resistant) cells; assay: WST-8 cell viability assay; assay type: cell-based; settings: Homo sapiens, PC9-OR, 72 h; treated for 3 days
Excerpt: Purchased human cancer cell lines included: (1) ES-2, HO-8910 PM and SW620 (Shanghai Institute of Biochemistry and Cell Biology); (2) HCC827, NCI-H1650, NCI-H1975, HepG2, and IMR-32 (American Type Culture Collection; Manassas, VA); and (3) OVCAR-3 (China Center for Type Culture Collection; Wuhan). All other human lines were obtained from Cobio Biosciences (Nanjing, China). Murine pro-B cell lines BaF3 and BaF3_EML4-ALK^G1202R were purchased from KYinoo (Beijing). Other BaF3-engineered cell lines were constructed internally. An osimertinib-resistant parental cell (PC-9/OR) line was established by exposing PC-9 cells to escalating concentrations of osimertinib for 3 months.
as §3, §4

[4] = system: NCI-H1975 CDX model, osimertinib-relapsed; assay: NCI-H1975 CDX osimertinib-relapsed rechallenge; assay type: in vivo, BALB/c nude mice; settings: osimertinib 15 mg/kg for 21 days
Method: as §1, §2

[5] = system: osimertinib-resistant PC-9/OR CDX xenografts; assay: PC-9/OR CDX efficacy; assay type: in vivo, BALB/c nude mice; settings: treated for 3 weeks
Method: All other human lines were obtained from Cobio Biosciences (Nanjing, China). Murine pro-B cell lines BaF3 and BaF3_EML4-ALK^G1202R were purchased from KYinoo (Beijing). Other BaF3-engineered cell lines were constructed internally. An osimertinib-resistant parental cell (PC-9/OR) line was established by exposing PC-9 cells to escalating concentrations of osimertinib for 3 months.
as §1, §2

[6] = system: Y397-FAK autophosphorylation (p-FAK), p-AKT, p-ERK1/2, p-STAT3 in PA-1 ovarian cancer cells; assay: Western blot of FAK signaling pathway in PA-1 cells; assay type: cell-based, human; settings: treated for 4 hours
Method: Western blot analysis was performed as described previously. Blots were cut prior to hybridization with the antibodies. Images of original cut blots with membrane edge visible are included (where applicable) in the Supplementary Material. Protein expression was quantitated using ImageJ (Image Processing and Analysis in Java) software (GitHub; Wayne Rasband, US National Institute of Mental Health) and normalized with β-actin to compute relative fold changes of proteins (vs. vehicle control). Antibody information is enumerated in Supplementary Table S1.

## C[C@@H](Oc1cc(-c2cnn(C3CCNCC3)c2)cnc1N)c1c(Cl)ccc(F)c1Cl [crizotinib]
[1]
  tumor response (in words): remained resistant

## CC(=O)O[C@H]1C(=O)[C@@]2(C)[C@H]([C@H](OC(=O)c3ccccc3)[C@]3(O)C[C@H](OC(=O)[C@H](O)[C@@H](NC(=O)c4ccccc4)c4ccccc4)C(C)=C1C3(C)C)[C@]1(OC(C)=O)CO[C@@H]1C[C@@H]2O [paclitaxel]
[2]
  antitumor activity of monotherapy (in words): weak or marginal antitumor activity

## C=CC(=O)Nc1cc(Nc2nccc(-c3cn(C)c4ccccc34)n2)c(OC)cc1N(C)CCN(C)C [Osimertinib, osimertinib]
PC-9 (parental) cells
  IC50: 0.086 µM
[3]
  IC50: 19.3 µM
[4]
  response to initial treatment (in words): all treated animals achieved complete response
[5]
  antitumor activity (in words): negligible antitumor activity

## CNC(=O)c1ccc(Nc2ncc(C(F)(F)F)c(NCc3nccnc3N(C)S(C)(=O)=O)n2)cc1 [defactinib, reference compound]
[6]
  inhibition of p-FAK, comparison of the 2 agents: inhibited p-FAK to a greater extent than APG-2449
